Data as given in patent US12414960B2, “Analogues of oleuropein and oleacein and uses thereof” (Attica Sciences Ltd., priority 2020, dated 2025).
One block for each compound: values may come before it.

Tests used:
[1] = system: HCT-116 colon cancer cells; assay: Cell Glo luminescence cell growth assay, HCT-116; format: cell-based, human; conditions: Homo sapiens, HCT-116, 24 h, NS = not statistically significant, read-out: Effectiveness to suppress HCT-116 cell growth (cell growth inhibition)
Description: (§1) The CellTiter-Glo® Luminescent Cell Viability Assay (Promega Corporation; Madison, WI) is a homogeneous method of determining the number of viable cells in culture based on quantitation of the ATP present, an indicator of metabolically active cells. The homogeneous assay procedure involves adding the single reagent (CellTiter-Glo® Reagent) directly to cells cultured in serum-supplemented medium. The homogeneous “add-mix-measure” format results in cell lysis and generation of a luminescent signal proportional to the amount of ATP present. The amount of ATP is directly proportional to the number of cells present in culture.
(§2) Cancer cells (3,000 cells/well) were harvested in a 96-well plate. Then, the cancer cells were treated with GS compounds and incubated for 24 hours. The MT Cell Viability Substrate, NanoLuc® Enzyme and cell culture medium was equilibrated to 37° C. The 2× RealTime-Glo™ reagent was prepared by diluting the MT Cell Viability Substrate and NanoLuc® Enzyme in 37° C. cell culture medium to a 2× concentration for each reagent. For example, 1 mL of 2× RealTime-Glo™ reagent was prepared by adding 2 μL of MT Cell Viability Substrate, 1,000×, and 2 μL of NanoLuc® Enzyme, 1,000×, to 996 μL of cell culture medium to form the 2× RealTime-Glo™ reagent. Then, an equal volume of 2× RealTime-Glo™ reagent was added to the cancer cells. The cells were kept for ˜20 minutes in the cell culture incubator and then luminescence was measured by using a plate-reading luminometer.
HCT-116 is a human colorectal cancer cell lines that has a mutation in RAS proto-oncogene.
(§3) The effects of exemplary compounds on cancer cell lines and one non-tumorigenic cell line (control) were investigated using a high throughput screening assay. More specifically, the effects of the GS compounds on cell growth was evaluated by the XTT assay for cell lines HepG2, HeLa, MCF7 ER+, MDA-MB-231, and MKN-45, and by the Cell Glo luminescence assay for cell lines MIA PaCa-2, HCT-116, MCF-10A, and PANC-1.

HepG2 liver cancer cells = assay: XTT cell growth assay, HepG2; format: cell-based, human; conditions: Homo sapiens, HepG2, 24 h, NS = not statistically significant, read-out: Effectiveness to suppress HepG2 cell growth (cell growth inhibition)
Description: (§4) The XTT assay is used to measure cellular metabolic activity as an indicator of cell viability, proliferation and cytotoxicity. This non-radioactive, colorimetric assay system was first described by Scudiero, et al. in 1988 (Paull, Kenneth D. et al., J Heterocycl Chem, 1988, 25: 911-914; Scudiero, Dominic A. et al., Cancer Res, 1988, 48: 4827-4833) and improved in subsequent years by several other investigators (Weislow, Owen S. et al., J Natl Cancer Inst, 1989, 81(8): 577-586; Roehm, N. W. et al., J Immunol Methods, 1991, 142: 257-265).
(§5) The XTT assay is based on the reduction of a yellow tetrazolium salt (sodium 3′-[1-(phenylaminocarbonyl)-3,4-tetrazolium]-bis (4-methoxy6-nitro) benzene sulfonic acid hydrate or XTT) to an orange formazan dye by metabolically active cells (FIG. 8). The formazan dye formed is soluble in aqueous solutions and is directly quantified using a scanning multiwell spectrophotometer (ELISA reader). An increase in number of living cells results in an increase in the overall activity of mitochondrial dehydrogenases in the sample. This increase directly correlates to the amount of orange formazan formed, as monitored by the absorbance. Reduced number of living cells leads to reduced metabolism of quaternary salt and therefore reduced absorption.
(§6) Cell viability was assessed using the XTT assay kit (Roche, Mannheim, Germany) as described previously (Kouka, Paraskevi et al., Oxid Med Cell Longev. 2019, Article ID 1870965). Briefly, cancer cells per well were cultured in a 96-well plate in Dulbecco's modified Eagle's medium (DMEM). Following a 24 h incubation, 5, 10 and 50 μM of the tested GS compound was diluted in a serum-free DMEM and administered for 24 h. Subsequently, 50 μL of the XTT reagent (50:1) was added to each well. After 4 h of incubation, the absorbance was monitored at 450 nm and also at 630 nm as a reference wavelength in a BioTek ELx800 microplate reader (BioTek Instruments Inc., Winooski, VT, USA). As a negative control, samples containing serum-free DMEM only were used.
Hep G2 (or HepG2) is a human liver cancer cell line. Hep G2 is an immortal cell line which was derived from the liver tissue of an adolescent with a well-differentiated hepatocellular carcinoma. Hep G2 cells are a suitable in vitro model system for the study of polarized human hepatocytes.
as §3

[2] = system: HeLa cervical cancer cells; assay: XTT cell growth assay, HeLa; format: cell-based, human; conditions: Homo sapiens, HeLa, 24 h, NS = not statistically significant, read-out: Effectiveness to suppress HeLa cell growth (cell growth inhibition)
Description: as §4, §5, §6
HeLa is a human immortal cell line used in scientific research. It is the oldest and most commonly used human cell line. The line was derived from cervical cancer cells taken on Feb. 8, 1951 from Henrietta Lacks, a patient who died of cancer on Oct. 4, 1951.
as §3

[3] = ABTS radical cation scavenging assay; format: biochemical; conditions: NS = not statistically significant
Description: The method of estimating antioxidant capacity, based on the ability to interact with the ABTS.+ radical cation was first performed by Miller et al. in 1993 (Miller, Nicholas et al., Clinical Science, 1993, 84: 407-412, “A novel method for measuring the antioxidant capacity and its application to monitoring the antioxidant status in premature neonates”). The mechanism of interaction of the antioxidant agents to be examined with the ABTS.+ radical is similar to that of the DPPH. radical, which can be inactivated either by the addition of an electron or by the addition of a hydrogen atom. However, unlike the DPPH. radical, which is a stable radical from the beginning, the ABTS.+ radical must be produced by the oxidation of ABTS. Thus, in order to estimate the antioxidant capacity of a substance, the formation of the ABTS.+ radical must first precede and the addition of the substance to be examined must follow. The addition of the antioxidant agent is performed after the production of the root ABTS.+ to avoid the interaction of the antioxidant agents with the oxidizing agents used for the oxidation of ABTS.
The oxidation of ABTS takes place either through chemical reactions with various reagents or through the action of enzymes such as peroxidases. The ABTS.+ radical from the moment it is formed is stable, has a green color and absorbs at 730 nm. When a substance with antioxidant activity is added to the solution, then the ABTS.+ radical is reduced by the addition of a hydrogen (or electron) atom, resulting in reduced visual absorption.
To assess the antioxidant capacity of the samples, the oxidation of ABTS was performed enzymatically through the action of horseradish peroxidase (HRP), in the presence of H2O2 (FIG. 3)
The anti-oxidant capacity of the GS compounds was evaluated by performing the ABTS assay as previously described (Kouka, Paraskevi et al., Oxid Med Cell Longev. 2019, Article ID 1870965). Briefly, in a total reaction volume of 1 mL in distilled water (dH2O), ABTS.^+ (1 mM), H2O2 (30 μM), and horseradish peroxidase (HRP) (6 μM) in 50 mM phosphate-buffered saline were added. The solution was incubated for 45 min at room temperature (RT) in the dark. Finally, 10 μL of the tested GS compound at various concentrations was added, and the absorbance was monitored on a Hitachi U-1900 radio beam spectrophotometer (serial no. 2023-029; Hitachi Ltd.) at 730 nm. In each experiment, a blank without the HRP was used, while the ABTS.^+ radical solution without the extract was used as the control. The RSC percentage of the tested extracts was calculated using the following equation: RSC (%)=[(ODcontrol−ODcompound)/ODcontrol]×100, where ODcontrol and OD sample are the optical density (OD) values of the control and the test sample, respectively.

[4] = system: MCF-7 ER+ breast cancer cells; assay: XTT cell growth assay, MCF-7 ER+; format: cell-based, human; conditions: Homo sapiens, MCF7, 24 h, NS = not statistically significant, read-out: Effectiveness to suppress MCF7 cell growth (cell growth inhibition)
Description: as §4, §5, §6
MCF-7 ER+ is a human breast cancer cell line isolated in 1970 from a person. Prior to MCF-7, it was not possible for cancer researchers to obtain a mammary cell line that was capable of living longer than a few months.
as §3

[5] = system: MDA-MB-231 triple negative breast cancer cells; assay: XTT cell growth assay, MDA-MB-231; format: cell-based, human; conditions: Homo sapiens, MDA-MB-231, 24 h, NS = not statistically significant, read-out: Effectiveness to suppress MDA-MB-231 cell growth (cell growth inhibition)
Description: as §4, §5, §6
MDA-MB-231 is a human epithelial breast cancer cell line that was established from a pleural effusion of a person with a metastatic mammary adenocarcinomal and is one of the most commonly used breast cancer cell lines in medical research laboratories.
as §3

pACLY (S455) = assay: ELISA of pACLY (S455) / ACLY enzymatic activity in PANC-1 cells; format: cell-based, human; conditions: 5 μM
Description: ELISA assay was used to evaluate the effect of GS compounds on protein activity levels in PANC-1 cancer cells. PANC-1 cells were serum-starved overnight and then treated with rIGF1 (100 ng/mL) for 24 hours, with or without GS27 (5 μM). The levels of the following proteins were evaluated by ELISA assay: a) p70 S6 (T389) (cat no. 54164C, Cell Signaling); b) pAKT (S473), (cat no. 80895, Cell Signaling); c) pACLY (S455), (cat no. okag1672, Avivasysbio); d) pAMPK (T172) (cat no. 7959C, Cell Signaling) and e) p65/NFKB (S536), (cat no. 7173, Cell Signaling).
PANC-1 is a human pancreatic ductal adenocarcinoma cell line derived from the carcinoma of a person.
The molecular mechanism of action of GS27, a compound that has exerted potent anti-cancer activity in different cancer cell lines including pancreatic cancer cells, was investigated. Oleacein has been implicated to have anti-inflammatory and metabolic effects, thus the potential effects of GS27 in different metabolic and inflammatory pathways were evaluated. Specifically, the protein levels of p70 S6 (T389), pAKT (S473), pACLY (S455), pAMPK (T172) and p65/NFKB (S536) were evaluated by ELISA assay in PANC-1 pancreatic cancer cells treated with 5 μM GS27. GS27 reduced p70 S6 and AKT phosphorylation levels, while it increased AMPK phosphorylation.
The effects of different GS compounds on ACLY enzymatic activity were evaluated by ELISA assay in PANC-1 pancreatic cancer cells. […] This finding is unexpected, since GS21 has a very similar structure with GS27, with the only difference being the presence of an oxygen atom in ester GS21 instead of a sulfur atom in thioester GS27.

[6] = Deoxyribose degradation assay (hydroxyl radical scavenging); format: biochemical; conditions: NS = not statistically significant
Description: The hydroxyl radical (OH.) is an extremely reactive in biological systems and has been implicated as highly damaging species in free radical pathology, capable of damaging biomolecules of the living cells. These radical combines with nucleotides in DNA and cause strand breakage leading to carcinogenesis, mutagenesis and cytotoxicity. Hydroxyl radical (OH.) scavenging capacity of an extract is directly related to its antioxidant activity.
The effect of extracts on hydroxyl radicals was assayed by using the deoxyribose method. 2-Deoxyribose is degraded on exposure to hydroxyl radicals generated by Fenton's reaction. The ability to neutralize the OH. is estimated as the rate of inhibition of the oxidation of 2-deoxyribose by the OH. (FIG. 5).
The measurement of the hydroxyl radical scavenging activity was evaluated for each of the GS compound by evaluating the pink chromogen absorption at 532 nm by spectrophotometry as described previously (Perjesi, Pal et al., Open Med Chem J., 2011, 5: 61-67

[7] = system: MKN-45 gastric cancer cells; assay: XTT cell growth assay, MKN-45; format: cell-based, human; conditions: Homo sapiens, MKN-45, 24 h, NS = not statistically significant, read-out: Effectiveness to suppress MKN-45 cell growth (cell growth inhibition)
Description: as §4, §5, §6
MKN-45 is a human gastric adenocarcinoma, established from the poorly differentiated adenocarcinoma of the stomach (medullary type) of a person.
as §3

[8] = system: MIA PaCa-2 pancreatic cancer cells; assay: Cell Glo luminescence cell growth assay, MIA PaCa-2; format: cell-based, human; conditions: Homo sapiens, MIA PaCa-2, 24 h, NS = not statistically significant, read-out: Effectiveness to suppress MIA PaCa-2 cell growth (cell growth inhibition)
Description: as §1, §2
MIA PaCa-2 is a human pancreatic ductal adenocarcinoma cell line derived from the carcinoma of a person.
as §3

ABTS Radical Cation Scavenging Assay IC50 [3]: 66 μg extract/mL
Structure (SMILES): C/C=C1/[C@H](OC2OC(CO)C(O)C(O)C2O)OC=C(C(=O)O)[C@H]1CC(=O)OCCc1cccc(O)c1 (stereo in doubt) [GS14, (2S,4S,E)-3-ethylidene-4-(2-(3-hydroxyphenethoxy)-2-oxoethyl)-2-{[(2R,3S,4R,5R,6S)-3,4,5-trihydroxy-6-(hydroxymethyl)tetrahydro-2H-pyran-2-yl]oxy}-3,4-dihydro-2H-pyran-5-carboxylic acid]
inhibition at 1 µM [1]: 26.4%
inhibition at 50 µM (HepG2 liver cancer cells): 10%
inhibition at 50 µM [2]: 29.5%
inhibition at 50 µM [4]: 28.4%
inhibition at 50 µM [5]: 38.2%

Deoxyribose Degradation Assay IC50 [6]: 14.4 μg extract/mL
Structure (SMILES): C/C=C(/C=O)[C@@H](CC=O)CC(=O)OCCc1ccccc1 [GS21, (35,4E)-4-formyl-3-(2-oxoethyl)-4-hexenoic acid 2-phenylethyl ester]
inhibition at 1 µM [1]: 21.5%
inhibition at 50 µM [2]: 75.8%
ACLY enzymatic activity (ELISA) (pACLY (S455)): small effect
inhibition at 50 µM [7]: 49.4%
inhibition at 50 µM [4]: 66%
inhibition at 50 µM [5]: 52.5%

Deoxyribose Degradation Assay IC50 [6]: 16.8 μg extract/mL
Structure (SMILES): C/C=C(/C=O)[C@@H](CC=O)CC(=O)OCCC1CCCCC1 [GS22, 2-cyclohexylethyl (S,E)-4-formyl-3-(2-oxoethyl)hex-4-enoate]
inhibition at 50 µM [8]: 28%
inhibition at 50 µM (HepG2 liver cancer cells): 66.8%
inhibition at 50 µM [2]: 48.6%
inhibition at 50 µM [7]: 35.8%
inhibition at 50 µM [5]: 48%
